For data set [1] the following is noted: 298.15 K; 101.33 kPa; Liquid; Vibrating tube method.
A short description of data set [2]: xn = mol fraction of the nth substance listed. To be noted: 298.15 K, 101.3 kPa, Liquid, Vibrating tube method.

Numbers after ± are expanded uncertainties.

As usually defined, the mass density is mass per unit of volume.

On to `CCCC[N+]1(C)CCCC1.O=S(=O)([N-]S(=O)(=O)C(F)(F)F)C(F)(F)F`, for which, in data set [1], the mass density turned out to be 1394.68 ± 6 kg/m3.
Take `CCCC[N+]1(C)CCCC1.O=S(=O)([N-]S(=O)(=O)C(F)(F)F)C(F)(F)F` + CCCCCCCC: the mass density in data set [2] (x2 = 0.042) is given as 1384.07 ± 4.5 kg/m3.
In the case of `CCCC[N+]1(C)CCCC1.O=S(=O)([N-]S(=O)(=O)C(F)(F)F)C(F)(F)F` + CCCCCCCCCC, in data set [2] (x2 = 0.023), the mass density is on record as 1387.66 ± 4.5 kg/m3.
Regarding `CCCC[N+]1(C)CCCC1.O=S(=O)([N-]S(=O)(=O)C(F)(F)F)C(F)(F)F` + c1ccccc1, the mass density in data set [2] (x2 = 0.81) is 1117.76 ± 4.3 kg/m3; in data set [2] (x2 = 0.811) it was 1118.57 ± 4.3 kg/m3.

The record behind these values is the NIST ThermoML archive (doi:10.1016/j.jct.2016.02.027).
